Data reported in patent US20260285850A1, “SUBSTITUTED OXAZOLIDINONES AND IMIDAZOLINONES AS HERBICIDES” (FMC CORPORATION, priority 2023, published 2026).

Tests used:
Assay type in all cases: in vivo
[1] = tested on: barnyardgrass (Echinochloa crus-galli); test: Test A preemergence soil spray, visual injury rating 0-100; settings: 10 days, 0 = no effect, 100 = complete control
Description: (§1) Seeds of plant species selected from barnyardgrass (Echinochloa crus-galli), blackgrass (Alopecurus myosuroides), corn (Zea mays), foxtail, giant (giant foxtail, Setaria faberi), green foxtail (Setaria viridis), goosegrass (Eleusine indica), kochia (Bassia scoparia), oat, wild (wild oat, Avena fatua), palmer (palmer amaranth, palmer pigweed, Amaranthus palmeri), ragweed (common ragweed, Ambrosia artemisiifolia), ryegrass, Italian (italian ryegrass, Lolium multiflorum), soybean (Glycine max) and wheat (Triticum aestivum) were planted into a blend of loam soil and sand and treated preemergence with a directed soil spray using test chemicals formulated in a non-phytotoxic solvent mixture which included a surfactant.
(§2) At the same time, plants selected from these crops and weed species and also galium (catchweed bedstraw, Galium aparine) and horseweed (Erigeron canadensis) were planted in pots containing the same blend of loam soil and sand and treated with postemergence applications of test chemicals formulated in the same manner. Plants ranged in height from 2 to 10 cm and were in the one- to two-leaf stage for the postemergence treatment. Treated plants and untreated controls were maintained in a greenhouse for 10 days, after which time all treated plants were compared to untreated controls and visually evaluated for injury. Plant response ratings, summarized in Table A, are based on a 0 to 100 scale where 0 is no effect and 100 is complete control. A dash (-) response means no test result.

[2] = tested on: green foxtail (Setaria viridis); test: as above; settings: 10 days, 0 = no effect, 100 = complete control
Description: as §1, §2

kochia (Bassia scoparia) [3] = test: as above; settings: 10 days, 0 = no effect, 100 = complete control
Description: as §1, §2

[4] = tested on: wheat (Triticum aestivum); test: as above; settings: 10 days, 0 = no effect, 100 = complete control
Description: as §1, §2

soybean (Glycine max) [5] = test: as above; settings: 10 days, 0 = no effect, 100 = complete control
Description: as §1, §2

[6] = tested on: blackgrass (Alopecurus myosuroides); test: as above; settings: 10 days, 0 = no effect, 100 = complete control
Description: as §1, §2

[7] = tested on: oat, wild (wild oat, Avena fatua); test: as above; settings: 10 days, 0 = no effect, 100 = complete control
Description: as §1, §2

corn (Zea mays) [8] = test: as above; settings: 10 days, 0 = no effect, 100 = complete control
Description: as §1, §2

[9] = tested on: palmer (palmer amaranth, palmer pigweed, Amaranthus palmeri); test: as above; settings: 10 days, 0 = no effect, 100 = complete control
Description: as §1, §2

[10] = tested on: ryegrass, Italian (italian ryegrass, Lolium multiflorum); test: as above; settings: 10 days, 0 = no effect, 100 = complete control
Description: as §1, §2

[11] = tested on: ragweed (common ragweed, Ambrosia artemisiifolia); test: as above; settings: 10 days, 0 = no effect, 100 = complete control
Description: as §1, §2

[12] = tested on: ducksalad (Heteranthera limosa); test: Test B flooded paddy test, visual plant response rating 0-100; settings: 250 g ai/ha, Flood, applied to paddy water, evaluated after 13 days
Description: (§3) Plant species in the flooded paddy test selected from barnyardgrass (Echinochloa crusgalli), ducksalad (Heteranthera limosa), rice (Oryza sativa), and sedge, umbrella (small-flower umbrella sedge, Cyperus difformis) were grown to the 2-leaf stage for testing. At time of treatment, test pots were flooded to 3 cm above the soil surface, treated by application of test compounds directly to the paddy water, and then maintained at that water depth for the duration of the test. Treated plants and controls were maintained in a greenhouse for 13 days, after which time all species were compared to controls and visually evaluated. […] A dash (-) response means no test result.

rice (Oryza sativa) = test: as above; settings: 250 g ai/ha, Flood, applied to paddy water, evaluated after 13 days
Description: as §3

[13] = tested on: barnyardgrass (Echinochloa crusgalli); test: as above; settings: 250 g ai/ha, Flood, applied to paddy water, evaluated after 13 days
Description: as §3

[14] = tested on: sedge, umbrella (small-flower umbrella sedge, Cyperus difformis); test: as above; settings: 250 g ai/ha, Flood, applied to paddy water, evaluated after 13 days
Description: as §3

[15] = tested on: barnyardgrass (Echinochloa crus-galli); test: Test A postemergence application, visual injury rating 0-100; settings: 10 days
Description: as §1, §2

[16] = tested on: green foxtail (Setaria viridis); test: as above; settings: 10 days
Description: as §1, §2

kochia (Bassia scoparia) [17] = test: as above; settings: 10 days
Description: as §1, §2

[18] = tested on: wheat (Triticum aestivum); test: as above; settings: 10 days
Description: as §1, §2

soybean (Glycine max) [19] = test: as above; settings: 10 days
Description: as §1, §2

[20] = tested on: blackgrass (Alopecurus myosuroides); test: as above; settings: 10 days
Description: as §1, §2

[21] = tested on: horseweed (Erigeron canadensis); test: as above; settings: 10 days
Description: as §1, §2

[22] = tested on: oat, wild (wild oat, Avena fatua); test: as above; settings: 10 days
Description: as §1, §2

corn (Zea mays) [23] = test: as above; settings: 10 days
Description: as §1, §2

[24] = tested on: palmer (palmer amaranth, palmer pigweed, Amaranthus palmeri); test: as above; settings: 10 days
Description: as §1, §2

[25] = tested on: ryegrass, Italian (italian ryegrass, Lolium multiflorum); test: as above; settings: 10 days
Description: as §1, §2

[26] = tested on: ragweed (common ragweed, Ambrosia artemisiifolia); test: as above; settings: 10 days
Description: as §1, §2

[27] = 31 g ai/ha, postemergence, 0 = no effect, 100 = complete control
[28] = Postemergence, 125 g ai/ha, 0 is no effect, 100 is complete control

COC(=O)C1=CC[C@H](NC(=O)C2(C)CN(c3cc(F)cc(F)c3)C(=O)O2)C1 (mixture of isomers) [Compound 37, Methyl (4S)-4-[[[3-(3,5-difluorophenyl)-5-methyl-2-oxo-5-oxazolidinyl]carbonyl]amino]-1-cyclopentene-1-carboxylate]
90: Barnyardgrass plant response rating (0 to 100 scale) ([1]; 125 g ai/ha) | Foxtail, Green plant response rating (0 to 100 scale) ([2]; 125 g ai/ha) | Ryegrass, Italian plant response rating (0 to 100 scale) ([10]; 125 g ai/ha) | Foxtail, Green plant response rating (0-100) [16, 27] | Foxtail, Green plant response rating (0 to 100 scale) [16, 28] | Wheat plant response rating (0-100) [18, 27] | Wheat plant response rating (0 to 100 scale) [18, 28] | Blackgrass plant response rating (0 to 100 scale) [20, 28] | Oat, Wild plant response rating (0-100) [22, 27] | Oat, Wild plant response rating (0 to 100 scale) [22, 28] | Amaranth, Palmer / Pigweed, Palmer plant response rating (0 to 100 scale) [24, 28] | Ryegrass, Italian plant response rating (0 to 100 scale) [25, 28]
0: Foxtail, Green plant response rating (0-100) ([2]; 31 g ai/ha) | Kochia plant response rating (0-100) (kochia (Bassia scoparia) [3]; 31 g ai/ha) | Blackgrass plant response rating (0-100) ([6]; 31 g ai/ha) | Ragweed plant response rating (0 to 100 scale) ([11]; 125 g ai/ha)
30: Barnyardgrass plant response rating (0-100) ([1]; 31 g ai/ha)
80: Wheat plant response rating (0 to 100 scale) ([4]; 125 g ai/ha) | Corn plant response rating (0 to 100 scale) (corn (Zea mays) [8]; 125 g ai/ha) | Amaranth, Palmer plant response rating (0 to 100 scale) ([9]; 125 g ai/ha) | Kochia plant response rating (0-100) (kochia (Bassia scoparia) [17]; [27]) | Kochia plant response rating (0 to 100 scale) (kochia (Bassia scoparia) [17]; [28]) | Soybean plant response rating (0 to 100 scale) (soybean (Glycine max) [19]; [28]) | Blackgrass plant response rating (0-100) [20, 27] | Ryegrass, Italian plant response rating (0-100) [25, 27]
95: Plant response rating, Ducksalad (0 to 100 scale, 0 is no effect and 100 is complete control) [12]
20: Kochia plant response rating (0 to 100 scale) (kochia (Bassia scoparia) [3]; 125 g ai/ha) | Blackgrass plant response rating (0 to 100 scale) ([6]; 125 g ai/ha) | Oat, Wild plant response rating (0-100) ([7]; 31 g ai/ha) | Ragweed plant response rating (0-100) [26, 27]
100: Plant response rating, Sedge, Umbrella (0 to 100 scale, 0 is no effect and 100 is complete control) [14] | Barnyardgrass plant response rating (0-100) [15, 27] | Barnyardgrass plant response rating (0 to 100 scale) [15, 28] | Corn plant response rating (0-100) (corn (Zea mays) [23]; [27]) | Corn plant response rating (0 to 100 scale) (corn (Zea mays) [23]; [28])
65: Plant response rating, Rice (0 to 100 scale, 0 is no effect and 100 is complete control) (rice (Oryza sativa))
75: Plant response rating, Barnyardgrass (0 to 100 scale, 0 is no effect and 100 is complete control) [13]
50: Ragweed plant response rating (0 to 100 scale) [26, 28]
40: Wheat plant response rating (0-100) ([4]; 31 g ai/ha)
10: Soybean plant response rating (0-100) (soybean (Glycine max) [5]; 31 g ai/ha) | Corn plant response rating (0-100) (corn (Zea mays) [8]; 31 g ai/ha) | Amaranth, Palmer plant response rating (0-100) ([9]; 31 g ai/ha) | Horseweed plant response rating (0-100) [21, 27]
70: Soybean plant response rating (0 to 100 scale) (soybean (Glycine max) [5]; 125 g ai/ha) | Ryegrass, Italian plant response rating (0-100) ([10]; 31 g ai/ha) | Soybean plant response rating (0-100) (soybean (Glycine max) [19]; [27]) | Horseweed plant response rating (0 to 100 scale) [21, 28] | Amaranth, Palmer plant response rating (0-100) [24, 27]
60: Oat, Wild plant response rating (0 to 100 scale) ([7]; 125 g ai/ha) | Ragweed plant response rating (0-100) ([11]; 31 g ai/ha)

COC(=O)C1CC(NC(=O)C2(C(F)(F)F)CN(c3cc(F)cc(F)c3)C(=O)O2)C1 (stereo not drawn) [Compound 196]
50: Plant response rating, Ducksalad (0 to 100 scale, 0 is no effect and 100 is complete control) [12]
95: Plant response rating, Barnyardgrass (0 to 100 scale, 0 is no effect and 100 is complete control) [13] | Plant response rating, Sedge, Umbrella (0 to 100 scale, 0 is no effect and 100 is complete control) [14]
85: Plant response rating, Rice (0 to 100 scale, 0 is no effect and 100 is complete control) (rice (Oryza sativa))
